In patent publication US4816471A, “Substituted heterocyclic benzamides, methods of preparing them and their application as anti-emetics” (Societe d'Etudes Scientifiques et Industrielles de …, priority 1978, dated 1989):
Structures can show the parent of a compound that is named as a salt.

How the values were obtained:
[1] = tested on: chewing stereotypes induced by apomorphine; assay: antagonism to chewing stereotypes induced by apomorphine in rats, method of Janssen; assay type: in vivo; settings: Table 4, apomorphine 1.25 mg/kg; for % antagonism to chewing stereotypes induced by apomorphine: s.c., at 200; for ED50: Rattus norvegicus, sc
Protocol: The neurological activity of the compounds of the invention was compared to the activity of prior art compounds in U.S. Pat. No. 4,172,143 and with a standard in this field, Sulpiride, N-[(1-ethylpyrrolidinyl-2)methyl]-2-methoxy-5 sulphamoyl benzamide. The compounds were tested for antagonism to chewing stereotypes induced by apomorphine (1.25 mg/kg in rats, according to the method of Janssen in Arzn. Forsch. 1960-10, 1003-5, under subcutaneous administration and the results were as follows: […]

[2] = tested on: chewing stereotypes induced by dexamphetamine; assay: antagonism to chewing stereotypes induced by dexamphetamine in rats, Janssen's method; assay type: in vivo; settings: Table 5, dexamphetamine 10 mg/kg; for % antagonism to chewing stereotypes induced by dexamphetamine: s.c., at 100 mg/kg; for ED50: Rattus norvegicus, sc
Protocol: The compounds were also tested for antagonism to chewing stereotypes induced by dexamphetamine (10 mg/kg) in rats, by Janssen's method in Arzn. Forsch. 1961, 11, 932-938 under subcutaneous administration with the following results: […]

[3] = tested on: biting sterotypes induced by apomorphine; assay: potentiation of biting sterotypes induced by apomorphine in mice, Pedeson's method; assay type: in vivo; settings: Table 6, apomorphine 10 mg/kg, interperitoneal; for ED50: Mus musculus, ip
Protocol: The compounds were also tested for potentiation of biting sterotypes induced by apomorphine (10 (mg/kg) in mice, under interperitoneal administration in accordance with Pedeson's method in Brit J. Pharmacol. 1968, 34 (1), 219-220 with the following results: […]

[4] = tested on: stereotypes induced by apomorphine; assay: potentiation of stereotypes induced by apomorphine in rats; assay type: in vivo; settings: Table 7, apomorphine 0.25 mg/kg, intraperitoneal
Protocol: The compound of Example 2 was tested against sulpiride for potentiation of stereotypes induced by apomorphine (0.25 mg/kg) in rats under intraperitoneal administration with the following results: […]

[5] = tested on: anti-emetic power relative to apomorphine in dogs; assay: anti-emetic power relative to apomorphine in dogs by the method of Chen and Ensor (subcutaneous administration); assay type: in vivo; settings: Canis lupus familiaris, sc, Table 1, s.c. 30 minutes before apomorphine 100 ug/kg s.c.
Protocol: (§1) The pharmacodynamic tests on the compounds of this invention, and particularly a study of their anti-emetic power have shown strong activity on the nervous system as apomorphine antagonists. […] In accordance with the above-mentioned procedures, the compounds of the invention were administered subcutaneously 30 minutes before the administration of apomorphine, which was administered subcutaneously in a dose of 100 ug/kg.

[6] = acute toxicity in the mouse; settings: in vivo
Excerpt: The acute toxicity of the compounds of the invention has been studied in the mouse. The LD50 's are set out in the following Table 3. […] This characteristic is highly desirable because the possibility of toxic effects due to the administration of therapeutic doses is thereby minimized.

[7] = tested on: anti-emetic power relative to apomorphine in dogs; assay: anti-emetic ED50 under oral administration (procedure of Example 29); assay type: in vivo; settings: Canis lupus familiaris, Table 2
Protocol: as §1
Compounds SLC-036, 77205 and 77149 are disclosed in U.S. Pat. No. 4,172,143 for comparison purposes, as Examples 10, 33 and 37 therein. The results for those compounds are reported in Table IX of the '143 Patent and are believed to represent results from oral administration.
Pharmacological tests were carried out under oral administration to determine anti-emetic ED50 in accordance with the procedure of Example 29 with the following results: […]

[8] = tested on: anti-emetic power relative to apomorphine in dogs; settings: cited from earlier work; for ED50 (Prior Art Compounds, Results Reported in U.S. Pat No. 4,172,143): Table 1, method of administration believed oral; for ED50 (oral): Table 2, prior art compounds, same values as reported in U.S. Pat. No. 4,172,143
solubility in water = assay type: physicochemical; settings: crystals, base

Structure (SMILES) | ED50 [5] | LD50 ([6]; I.V. (intravenous)) | LD50 ([6]; P.O. (oral)) | LD50 ([6]; ip, I.P. (intraperitoneal)) | LD50 ([6]; sc, S.C. (subcutaneous)) | ED50 [1] | ED50 [2] | other results
CCN1CCCC1CNC(=O)c1cc(S(N)(=O)=O)ccc1OC (centres unmarked) [Sulpiride, N-[(1-ethylpyrrolidinyl-2)methyl]-2-methoxy-5 sulphamoyl benzamide, reference compound] | – | – | – | – | – | – | – | % antagonism to chewing stereotypes induced by apomorphine [1]: 0%; % antagonism to chewing stereotypes induced by dexamphetamine [2]: 0%; % potentiation of biting sterotypes induced by apomorphine ([3]; at 4 mg/kg): 12%; % potentiation of stereotypes induced by apomorphine ([4]; at 8 mg/kg): 30%
CNS(=O)(=O)c1cc(OC)c(OC)c(C(=O)NCC2CCCN2CC2=CCCCC2)c1 (centres unmarked) [Example 12, N-(1-cyclohexenylmethyl 2-pyrrolidinylmethyl) 2,3-dimethoxy 5-methylsulphamoyl benzamide] | 0.00115 mg/kg | 57.8 to 62 mg/kg | 540 to 560 mg/kg | 198 to 200 mg/kg | 297 to 319 mg/kg | 4 mg/kg | 1.5 mg/kg | ED50 [3]: 0.33 mg/kg
COc1ccc(S(N)(=O)=O)cc1C(=O)NCC1CCCN1CC1=CCCCC1 (centres unmarked) [Example 14, N-[1(1-cyclohexenylmethyl) 2-pyrrolidinylmethyl]2-methoxy 5-sulphamoyl benzamide] | 0.00085 mg/kg | 82.5 to 85.5 mg/kg | 525 to 542 mg/kg | 294 to 317 mg/kg | 630 to 640 mg/kg | 16.4 mg/kg | 10 mg/kg | ED50 [7]: 0.0012 mg/kg
COc1cc2[nH]nnc2cc1C(=O)NCC1CCCN1CC1=CCCCC1 (centres unmarked) [Example 22, N-(1-cyclohexenylmethyl 2-pyrrolidinylmethyl) 2-methoxy 4,5-azimido benzamide] | 0.002 mg/kg | – | – | – | – | – | – | –
COc1ccc(S(=O)(=O)N(C)C)cc1C(=O)NCC1CCCN1CC1CC1 (centres unmarked) [Example 77149, N--(1cyclopropylmethyl 2pyrrolidinylmethyl)-2-methoxy-5-dimethylsulphamoyl benzamide] | – | – | – | – | – | – | – | ED50 (Prior Art Compounds, Results Reported in U.S. Pat No. 4,172,143) [8]: 0.04 mg/kg; ED50 (oral) [8]: 0.04 mg/kg
CNS(=O)(=O)c1cc(C(=O)NCC2CCCN2CC2CC2)c(OC)cc1N (centres unmarked) [Example 3, N-(1-cyclopropylmethyl 2-pyrrolidinylmethyl)-2-methoxy 4-amino 5-methylsulphamoyl benzamide] | 0.0004 mg/kg | – | – | – | – | – | – | –
CCS(=O)(=O)c1cc(C(=O)NCC2CCCN2CC2=CCCCC2)c(OC)cc1N (centres unmarked) [Example 11, N-[1-(1-cyclohexenylmethyl)-2-pyrrolidinylmethyl]-2-methoxy 4-amino 5-ethylsulphonyl benzamide, phosphate] | 0.00057 mg/kg | 29.5 to 31.8 mg/kg | 510 to 555 mg/kg | 180 to 181 mg/kg | 343 to 360 mg/kg | 13.7 mg/kg | 5.4 mg/kg | –
COc1cc(S(N)(=O)=O)cc(C(=O)NCC2CCCN2CC2=CCCCC2)c1OC (centres unmarked) [Example 6, N-(1-cyclohexenyl-methyl-2-pyrrolidylmethyl)-2,3-dimethoxy 5-sulphamoyl benzamide] | 0.0028 mg/kg | – | – | – | – | 40 mg/kg | – | mortality ([6]; ip, I.P., at 240 mg/kg, read-out: 60% at 240 mg/kg (acute toxicity)): 60%; ED50 [3]: 2.6 mg/kg
COc1ccc(S(N)(=O)=O)cc1C(=O)NCC1CCCN1CC1CC1 (centres unmarked) [SLC-036, N--(1cyclopropylmethyl 2pyrrolidinylmethyl)-2-methoxy-5-sulphamoyl benzamide, reference compound] | – | – | – | – | – | – | – | % antagonism to chewing stereotypes induced by apomorphine [1]: 0%; % antagonism to chewing stereotypes induced by dexamphetamine [2]: 0%; ED50 (Prior Art Compounds, Results Reported in U.S. Pat No. 4,172,143) [8]: 0.037 mg/kg; ED50 (oral) [8]: 0.037 mg/kg
CCS(=O)(=O)c1cc(C(=O)NCC2CCCN2CC2CCCCC2)c(OC)cc1N (centres unmarked) [Example 8, N-(1-cyclohexylmethyl-2-pyrrolidinyl-methyl)-2-methoxy-4-amino-5-ethylsulphonyl-benzamide] | 0.002 mg/kg | 37 to 40.8 mg/kg | 348 to 380 mg/kg | 133 to 145 mg/kg | 336 to 342 mg/kg | 33 mg/kg | 15.4 mg/kg | –
CNS(=O)(=O)c1ccc(OC)c(C(=O)NCC2CCCN2CC2=CCCCC2)c1 (centres unmarked) [Example 15, N-(1-cyclohexenylmethyl 2-pyrrolidinylmethyl) 2-methoxy 5-methylsulphamoyl benzamide] | 0.00021 mg/kg | 44.2 to 46.5 mg/kg | 540 to 558 mg/kg | 204 to 208 mg/kg | 462 to 494 mg/kg | 1.22 mg/kg | 0.78 mg/kg | ED50 [7]: 0.0011 mg/kg
CC[S+]([O-])c1cc(C(=O)NCC2CCCN2CC2CC2)c(OC)cc1N (centres unmarked) [Example 1, N-(1-cyclopropylmethyl 2-pyrrolidinylmethyl)-2-methoxy 4-amino 5-ethylsulphinyl benzamide] | 0.0007 mg/kg | – | – | – | – | – | – | –
CCS(=O)(=O)c1cc(OC)c(OC)c(C(=O)NCC2CCCN2CC2CC2)c1 (centres unmarked) [Example 16, N-(1-cyclopropylmethyl 2-pyrrolidinylmethyl) 2,3-dimethoxy 5-ethylsulphonylbenzamide, hydrochloride] | – | 92.9 to 97.2 mg/kg | 588 to 598 mg/kg | 303 to 338 mg/kg | 595 to 597 mg/kg | 3.2 mg/kg | 1.34 mg/kg | ED50 [7]: 0.00023 mg/kg; ED50 [3]: 0.25 mg/kg
CCS(=O)(=O)c1cc(C(=O)NCC2CCCN2CC2CC2)c(OC)cc1N (centres unmarked) [Example 2, N-(1-cyclopropyl-methyl-2-pyrrolidinyl-methyl)-2-methoxy-4-amino-5-ethylsulphonyl-benzamide] | 0.0004 mg/kg | 52.5 to 54.6 mg/kg | 1260 to 1320 mg/kg | 204 to 220 mg/kg | 380 to 396 mg/kg | – | – | ED50 [7]: 0.0009 mg/kg; ED50 [3]: 1.6 mg/kg; ED50 ([4]; Rattus norvegicus, ip): 2.4 mg/kg
CNS(=O)(=O)c1ccc(OC)c(C(=O)NCC2CCCN2CC2=CCCCCC2)c1 (centres unmarked) [Example 13, N-(1-cycloheptenylmethyl 2-pyrrolidinylmethyl) 2-methoxy 5-methylsulphamoylbenzamide] | 0.0005 mg/kg | 45.5 to 48 mg/kg | 312 to 330 mg/kg | 128 to 140 mg/kg | 322 to 336 mg/kg | 1.5 mg/kg | 0.54 mg/kg | –
COc1cc(S(N)(=O)=O)cc(C(=O)NCC2CCCN2CC2CC2)c1OC (centres unmarked) [Example 4, N-(1-cyclopropylmethyl-2-pyrrolidinylmethyl)-2,3-dimethoxy-5-sulphamoyl benzamide] | 0.0022 mg/kg | 60 to 64.5 mg/kg | 2280 mg/kg | 372 to 403 mg/kg | 930 mg/kg | – | – | solubility in water (solubility in water): insoluble
CNS(=O)(=O)c1cc(OC)c(OC)c(C(=O)NCC2CCCN2CC2CC2)c1 (centres unmarked) [Example 5, N-(1-cyclopropylmethyl 2-pyrrolidinylmethyl)-2,3-dimethoxy 5-methylsulphamoyl benzamide] | 0.0005 mg/kg | – | – | – | – | – | – | –
CCS(=O)(=O)c1cc(C(=O)NCC2CCCN2CC2=CCCC2)c(OC)cc1N (centres unmarked) [Example 10, N-(1-cyclopentenylmethyl 2-pyrrolidinylmethyl)-2-methoxy 4-amino 5-ethylsulphonyl benzamide] | 0.0013 mg/kg | 41.8 to 42 mg/kg | 980 to 990 mg/kg | 204 to 212 mg/kg | 330 to 360 mg/kg | – | 14 mg/kg | –
COc1ccc(S(N)(=O)=O)cc1C(=O)NCC1CCCN1CC1CCCCC1 (centres unmarked) [Example 77205, N--(1cyclohexylmethyl 2pyrrolidinylmethyl)-2-methoxy-5-sulphamoyl benzamide, reference compound] | – | – | – | – | – | – | 19 mg/kg | % antagonism to chewing stereotypes induced by apomorphine [1]: 20%; ED50 (Prior Art Compounds, Results Reported in U.S. Pat No. 4,172,143) [8]: 0.014 mg/kg; ED50 (oral) [8]: 0.014 mg/kg
